The subject of data set [1] is influenza virus (A/PR/8 strain). The data set is described as follows: microbe, parasite or virus in culture. As to conditions: unidentified influenza virus, PR/8, MDCK, read-out: Antiviral Activitiy (ΔTCID₅₀)(log₁₀). It is filed as cell-based.
Another data set concerns HSV-1 (Miyama strain). The data set is described as follows: microbe, parasite or virus in culture. It is filed as cell-based, herpes simplex virus type 1.
A further data set concerns influenza A virus. The following applies: prior art statement; cited from earlier work.
For a further data set, the system named is influenza B virus. As to conditions: prior art statement; cited from earlier work.
For another data set, the system named is influenza virus. The following applies: from "Acta Virol.", 28, pp. 501-507 (1984); cited from earlier work.
The mark [2] stands for this setting: Human alphaherpesvirus 1, GMK, read-out: Antiviral Activity (ΔTCID₅₀)(log₁₀), compound concentration 10 µg/ml, GMK cells.
The mark [3] stands for this setting: Human alphaherpesvirus 1, GMK, read-out: Antiviral Activity (ΔTCID₅₀)(log₁₀), compound concentration 20 µg/ml, GMK cells.
[4] abbreviates: Human alphaherpesvirus 1, GMK, read-out: Antiviral Activity (ΔTCID₅₀)(log₁₀), compound concentration 5 µg/ml, GMK cells.
Setting [5] is: Human alphaherpesvirus 1, GMK, read-out: Antiviral Activity (ΔTCID₅₀)(log₁₀).
Setting [6] is: compound concentration 10 µg/ml, GMK cells.
Where [7] appears, read: compound concentration 50 µg/ml, GMK cells.

Structures can show the parent of a compound that is named as a salt. Where two headings read alike, the source gives them in different places. Bounds are passed on as bounds.

On to `OC(c1ccc(C(F)(F)F)cc1)(C1C2CC3CC(C2)CC1C3)C12CCCN1CCC2` (centres unmarked) [Prep. Ex. 17, 1-(1-azabicyclo[3.3.0]octan-5-yl)-1-(4-trifluoromethylphenyl)-1-(2-tricyclo[3.3.1.1³^.7]decyl)methan-1-ol hydrochloride], for which the cytotoxicity in the data set with GMK cells is 0.33 (-). In data set [1], the log reduction at 5 µg/mL worked out at 0.33, the log reduction at 10 µg/mL is 0.33 and the log reduction at 20 µg/mL came out at 0.33. In addition, the log reduction at 10 µg/mL in the data set on HSV-1 (Miyama strain) (setting [2]) came out at 0.33. Moreover, the log reduction at 20 µg/mL with HSV-1 (Miyama strain) (setting [3]) was 0.33.

Take `NC12CC3CC(CC(C3)C1)C2` [Amantadine]: in the data set with influenza A virus, the “efficacy against influenza A virus” value was “efficacious against influenza A virus”. In the data set on influenza B virus, the “efficacy against influenza B virus” value is listed as “not against influenza B virus”.

As for `OC(c1cccc(C(F)(F)F)c1)(C1C2CC3CC(C2)CC1C3)C12CCCN1CCC2` (centres unmarked) [Prep. Ex. 21, 1-(1-azabicyclo[3.3.0]octan-5-yl)-1-(3-trifluoromethylphenyl)-1-(2-tricyclo[3.3.1.1^3.7]decyl)methan-1-ol hydrochloride], the log reduction at 5 µg/mL in data set [1] stood at 0; in the data set on HSV-1 (Miyama strain) (setting [4]), 0.5. Besides, the log reduction at 10 µg/mL was 0.27 in data set [1] and 0.33 in the data set with HSV-1 (Miyama strain) (setting [2]).

As for `OC(c1ccc(F)cc1)(C1C2CC3CC(C2)CC1C3)C12CCCN1CCC2` (centres unmarked) [Prep. Ex. 11, 1-(1-azabicyclo[3.3.0]octan-5-yl)-1-(4-fluoropheyl)-1-(2-tricyclo [3.3.1.1^3.7]decyl)methan-1-ol hydrochloride], the “Antiviral Activity (ΔTCID₅₀)(log₁₀)” value in the data set with HSV-1 (Miyama strain) (compound concentration 5 µg/ml, GMK cells, hydrochloride) is given as 0.00 (-) log₁₀.

In the case of `OC(c1ccccc1)(C1C2CC3CC(C2)CC1C3)C12CCCN1CCC2` (centres unmarked) [Prep. Ex. 8, 1-(1-azabicyclo[3.3.0]octan-5-yl)-1-phenyl-1-(2-tricyclo[3.3. 1.1^3.7]decyl)methan-1-ol], in data set [1], the log reduction at 10 µg/mL was found to be 0.67 and the log reduction at 20 µg/mL is over 3.5. In the data set on HSV-1 (Miyama strain) (setting [5]), the log reduction at 5 µg/mL worked out at 0.5, the log reduction at 10 µg/mL stood at 0.66 and the log reduction at 20 µg/mL stood at 2.66.

As to “(1R*)-1-phenyl-3-piperidino-1-((3'R*)-3-tricyclo[2.2.1.0] heptyl)propan-1-ol hydrochloride [Prep. Ex. 2]”, the results for the “Antiviral Activity (ΔTCID₅₀)(log₁₀)” value with HSV-1 (Miyama strain) (setting [6]) and with HSV-1 (Miyama strain) (setting [7]) were 0.17 (-) log₁₀ and >3.00 (+) log₁₀, respectively.

Regarding `OC(CCN1CCCCC1)(c1ccccc1)C1C2CC3C(C2)C31` (stereo not drawn) [Prep. Ex. 1, (1R*)-1-phenyl-3-piperidino-1-((3'S*)-3-tricyclo[2.2.1.0]heptyl)propan-1-ol hydrochloride], in data set [1], the log reduction at 10 µg/mL amounted to 0.44 and the log reduction at 20 µg/mL is over 3.17. Besides, the log reduction at 10 µg/mL in the data set with HSV-1 (Miyama strain) (setting [2]) was found to be 0.83. In addition, the log reduction at 50 µg/mL with HSV-1 (Miyama strain) (Human alphaherpesvirus 1, GMK, read-out: Antiviral Activity (ΔTCID₅₀)(log₁₀), compound concentration 50 µg/ml, GMK cells) is over 3.

Turning to `Cc1ccccc1C(O)(C1C2CC3CC(C2)CC1C3)C12CCCN1CCC2` (centres unmarked) [Prep. Ex. 25, 1-(1-azabicyclo[3.3.0]octan-5-yl)-1-(2-methylphenyl)-1-(2-tricyclo[3.3.1.1^3.7]decyl)methan-1-ol hydrochloride], the cytotoxicity with GMK cells is listed as >3.00 (+). In addition, in the data set on HSV-1 (Miyama strain) (setting [2]), the log reduction at 10 µg/mL was over 3.

`COc1cccc(C(O)(C2C3CC4CC(C3)CC2C4)C23CCCN2CCC3)c1` (centres unmarked) [Prep. Ex. 19, 1-(1-azabicyclo[3.3.0]octan-5-yl)-1-(3-methoxyphenyl)-1-(2-tricyclo[3.3.1.1³^.7]decyl)methan-1-ol hydrochloride]: in data set [1], the log reduction at 5 µg/mL was determined as 0, the log reduction at 10 µg/mL was 0.17 and the log reduction at 20 µg/mL was over 3.17. Further, in the data set on HSV-1 (Miyama strain) (setting [2]), the log reduction at 10 µg/mL stood at 0. The log reduction at 20 µg/mL in the data set with HSV-1 (Miyama strain) (setting [3]) is over 2.

Regarding `Cc1ccc(C(O)(C2C3CC4CC(C3)CC2C4)C23CCCN2CCC3)cc1` (centres unmarked) [Prep. Ex. 27, 1-(1-azabicyclo[3.3.0]octan-5-yl)-1-(4-methylphenyl)-1-(2-tricyclo-[3.3.1.1^3.7]decyl)methan-1-ol hydrochloride], in data set [1], the log reduction at 5 µg/mL amounted to 0.17, the log reduction at 10 µg/mL came to 0.17 and the log reduction at 20 µg/mL came to 2.17. In addition, the log reduction at 10 µg/mL in the data set on HSV-1 (Miyama strain) (setting [2]) stood at 2.17. Further, in the data set on HSV-1 (Miyama strain) (setting [3]), the log reduction at 20 µg/mL was over 3.

For `OC(c1ccc(-c2ccccc2)cc1)(C1C2CC3CC(C2)CC1C3)C12CCCN1CCC2` (centres unmarked) [Prep. Ex. 29, 1-(1-azabicyclo[3.3.0]octan-5-yl)-1-(4-biphenyl)-1-(2-tricyclo[3.3.1.1^3.7]decyl)methan-1-ol hydrochloride], the cytotoxicity with GMK cells was >3.17 (+); in the data set with MDCK cells it was >3.00 (+). In addition, in data set [1], the log reduction at 5 µg/mL was over 3. Besides, the log reduction at 10 µg/mL was over 3 in data set [1] and over 3.17 in the data set on HSV-1 (Miyama strain) (setting [2]).

Take `OC(c1ccc2ccccc2c1)(C1C2CC3CC(C2)CC1C3)C12CCCN1CCC2` (centres unmarked) [Prep. Ex. 9, 1-(1-azabicyclo[3.3.0]octan-5-yl)-1-(2-naphthyl)-1-(2-tricyclo [3.3.1.1^3.7]decyl)methan-1-ol]: the cytotoxicity in the data set on GMK cells is on record as 2.17 (-). Moreover, the log reduction at 5 µg/mL in the data set on HSV-1 (Miyama strain) (setting [4]) was 1.17. Besides, the log reduction at 10 µg/mL in the data set on HSV-1 (Miyama strain) (setting [2]) was 2.17.

`CC(=O)c1ccc(C(O)(C2C3CC4CC(C3)CC2C4)C23CCCN2CCC3)cc1` (centres unmarked) [Prep. Ex. 32, 1-(4-acetylphenyl)-1-(1-azabicyclo[3.3.0]octan-5-yl)-1-(2-tricyclo[3.3.1.1³^.7]decyl)methan-1-ol hydrochloride]: the cytotoxicity with GMK cells is recorded as 0.33 (+). For the same compound, in data set [1], the log reduction at 5 µg/mL came out at 0.5, the log reduction at 10 µg/mL was 1 and the log reduction at 20 µg/mL is 1.16. In the data set with HSV-1 (Miyama strain) (setting [2]), the log reduction at 10 µg/mL stood at 0.33.

On to `CN(C)c1ccc(C(O)(C2C3CC4CC(C3)CC2C4)C23CCCN2CCC3)cc1` (centres unmarked) [Prep. Ex. 13, 1-(1-azabicyclo[3.3.0]octan-5-yl)-1-(4-dimethylaminophenyl)-1-(2-tricyclo[3.3.1.1^3.7]decyl)methan-1-ol dihydrochloride], for which the log reduction at 10 µg/mL was 0.17 in data set [1] and 0.77 with HSV-1 (Miyama strain) (setting [2]). Also, in the data set on HSV-1 (Miyama strain) (setting [3]), the log reduction at 20 µg/mL is 3. Further, the cytotoxicity in the data set with MDCK cells is recorded as 0.17 (+).

Regarding `COc1ccc(C(O)(C2C3CC4CC(C3)CC2C4)C23CCCN2CCC3)cc1` (centres unmarked) [Prep. Ex. 15, 1-(1-azabicyclo[3.3.0]octan-5-yl)-1-(4-methoxyphenyl)-1-(2-tricyclo[3.3.1.1^3.7]decyl)methan-1-ol hydrochloride], the cytotoxicity in the data set with GMK cells is 0.67 (-). For the same compound, in data set [1], the log reduction at 5 µg/mL stood at 0, the log reduction at 10 µg/mL was over 2.17 and the log reduction at 20 µg/mL was over 3.5. The log reduction at 10 µg/mL in the data set on HSV-1 (Miyama strain) (setting [2]) amounted to 0.67.

For the compound `CC(N)C12CC3CC(CC(C3)C1)C2` (centres unmarked) [remantadine, Remantadine], in the data set on influenza A virus, the “efficacy against influenza A virus” value is reported as “efficacious against influenza A virus”. The “efficacy against influenza B virus” value with influenza B virus was “not against influenza B virus”.

`OC(CCN1CCCCC1)(c1ccccc1)C1CC2C=CC1C2` (centres unmarked) [Akineton]: in the data set with influenza virus, the “anti influenza virus action” value is “confirmed to have an anti influenza virus action”.

In the case of `COc1ccccc1C(O)(C1C2CC3CC(C2)CC1C3)C12CCCN1CCC2` (centres unmarked) [Prep. Ex. 23, 1-(1-azabicyclo[3.3.0]octan-5-yl)-1-(2-methoxyphenyl)-1-(2-tricyclo[3.3.1.1^3.7]decyl)methan-1-ol hydrochloride], the cytotoxicity in the data set on GMK cells was 0.17 (+). In addition, the log reduction at 10 µg/mL in the data set on HSV-1 (Miyama strain) (setting [2]) was determined as 0.17.

On to “(1R*)-1-(1-azabicyclo[3.3.0]octan-5-yl)-1-phenyl-1-((3'R*)-3-tricyclo[2.2.1.0]heptyl)methanol hydrochloride [Prep. Ex. 4]”, for which the results for the “Antiviral Activity (ΔTCID₅₀)(log₁₀)” value with HSV-1 (Miyama strain) (setting [6]) and in the data set with HSV-1 (Miyama strain) (setting [7]) were 0.66 (-) log₁₀ and 1.33 (±) log₁₀, respectively.

For the compound `OC(c1ccccc1)(C1C2CC3C(C2)C31)C12CCCN1CCC2` (stereo not drawn) [Prep. Ex. 3, (1R*)-1-(1-azabicyclo[3.3.0]octan-5-yl)1-phenyl-1-[(3'S*)-3-tricyclo[2.2.1.0]heptyl]methan-1-ol hydrochloride], the “Antiviral Activity (ΔTCID₅₀)(log₁₀)” value in the data set with HSV-1 (Miyama strain) (setting [6]) was 0.00 (-) log₁₀; in the data set on HSV-1 (Miyama strain) (setting [7]) it was >3.00 (-) log₁₀.

As for `CC1(c2ccc(C(O)(C3C4CC5CC(C4)CC3C5)C34CCCN3CCC4)cc2)OCCS1` (centres unmarked) [Prep. Ex. 30, 1-(1-azabicyclo[3.3.0]octan-5-yl)-1-(4-(2-methyl-1,3-thioxolane-2-yl)phenyl)-1-(2-tricyclo[3.3.1.1^3.7]decyl)methan-1-ol], the cytotoxicity in the data set on GMK cells was >3.17 (+); with MDCK cells it was >3.00 (+). Besides, the log reduction at 5 µg/mL in data set [1] is over 3. The results for the log reduction at 10 µg/mL (in data set [1]; in the data set with HSV-1 (Miyama strain) (setting [2])) were over 3 and over 3.17, respectively.

In the case of `OC(c1ccc(F)cc1)(C1C2CC3CC(C2)CC1C3)C12CCCN1CCC2` (centres unmarked) [Prep. Ex. 10, 1-(1-azabicyclo[3.3.0]octan-5-yl)-1-(4-fluoropheyl)-1-(2-tricyclo [3.3.1.1^3.7]decyl)methan-1-ol], in data set [1], the log reduction at 5 µg/mL turned out to be 2 and the log reduction at 10 µg/mL is over 3.17. In addition, the log reduction at 10 µg/mL in the data set with HSV-1 (Miyama strain) (setting [2]) amounted to 1.17. Moreover, the “Antiviral Activity (ΔTCID₅₀)(log₁₀)” value in the data set on HSV-1 (Miyama strain) (compound concentration 5 µg/ml, GMK cells) is given as 0.83 (-) log₁₀.

Regarding `CC(C(O)(c1ccccc1)C1C2CC3C(C2)C31)C12CCCN1CCC2` (centres unmarked) [Prep. Ex. 6, 2-(1-azabicyclo[3.3.0]octan-5-yl)-1-phenyl-1-(3-tricyclo [2.2.1.0]heptyl)propan-1-ol], in the data set on HSV-1 (Miyama strain) (setting [6]), the “Antiviral Activity (ΔTCID₅₀)(log₁₀)” value is listed as 1.00 (±) log₁₀.

Source of the values: patent publication EP0558321A1 (priority 1992, dated 1993).
